Measurements taken from patent US9682985B2, “(Indazol-4-yl) hexahydropyrrolopyrrolones and methods of use” (AbbVie Inc., priority 2015, dated 2017).

Experiments:
[1] = system: SNL-induced neuropathic pain in rats; assay: Rat spinal nerve ligation (SNL) model of neuropathic pain, paw withdrawal threshold; assay type: in vivo; conditions: SNL dose 100 mg/kg
Excerpt: Rat Spinal Nerve Ligation (SNL) Model of Neuropathic Pain.
A model of spinal nerve ligation-induced (SNL model) neuropathic pain as originally described by Kim and Chung (Kim, S. H. and J. M. Chung, 1992, Pain 50, 355) was used to test a compound of the present application. The male Sprague Dawley rats (Charles River Laboratories, Wilmington, Mass.), weighing 150-175 g at the time of surgery, were placed under isoflurane anesthesia and a 1.5 cm incision was made dorsal to the lumbosacral plexus. The paraspinal muscles (left side) were separated from the spinous processes, the left L5 and L6 spinal nerves isolated, and tightly ligated with 5-0 silk suture distal to the dorsal root ganglion. Care was taken to avoid ligating the L4 spinal nerve. Following spinal nerve ligation, a minimum of 7 days of recovery and no more than 3 weeks was allowed prior to the behavioral testing (mechanical sensitivity). Only rats with threshold scores ≦4.5 g were considered allodynic and utilized in pharmacological experiments.
Mechanical sensitivity was measured using calibrated von Frey filaments (Stoelting, Wood Dale, Ill.). Paw withdrawal threshold (PWT) was determined by using the Dixon's up-down method (Dixon, W. J., 1980, Ann. Rev. Pharmacol. Toxicol., 20, 441). Rats were placed into inverted individual plastic containers (20×12.5×20 cm) on top of a suspended wire mesh with a 1 cm^2 grid to provide access to the ventral side of the hind paws, and acclimated to the test chambers for 20 minutes. The von Frey filaments were presented perpendicularly to the plantar surface of the selected hind paw, and then held in this position for approximately 8 seconds with enough force to cause a slight bend in the filament. […] A 50% withdrawal threshold was determined using an up-down procedure (Dixon, 1980). A percent maximal possible effect (% MPE) of testing compound was calculated according to the formula: (Log [compound−treated threshold]−Log [vehicle−treated threshold])/(Log [maximum threshold]−Log [vehicle-treated threshold])×100%, where the maximum threshold was equal to 15 g. […]

[2] = system: MIA-induced osteoarthritic pain in rats; assay: Osteoarthritic (OA) pain induced by sodium monoiodoacetate (MIA), hind limb grip force; assay type: in vivo; conditions: rat MIA-OA, 20 days after MIA
Experimental: Osteoarthritic (OA) Pain Induced by Sodium Monoiodoacetate (MIA)
Pain behavior was assessed by measurement of hind limb grip force (GF) in adult osteoarthritic rats. Male Sprague Dawley rats, obtained from Charles River Laboratories, (Wilmington, Mass.), weighing 150-175 g, were injected in the unilateral knee join with a single intra-articular injection of sodium monoiodoacetate (MIA, 3 mg/rat). All rats were tested at 20 days following MIA injection. A behavioral measure of activity-induced pain was carried out. Measurements of the peak hind limb grip force were conducted by recording the maximum compressive force (CFmax), in grams of force, exerted on a hind limb strain gauge setup, in a commercially available grip force measurement system (Columbus Instruments, Columbus, Ohio).
During testing, each rat was gently restrained by grasping it around its rib cage and then allowed to grasp the wire mesh frame attached to the strain gauge. The experimenter then moved the animal in a rostral-to-caudal direction until the grip was broken. Each rat was sequentially tested twice at an approximately 2-3 minute interval to obtain a raw mean grip force (CFmax). This raw mean grip force data was in turn converted to a maximum hindlimb cumulative compressive force (CFmax), as the grams of force/kg of body weight, for each animal.
For evaluating the compound effects, the hind limb grip force was conducted 20 days following the intra-articular injection of MIA. A group of age-matched naïve (not injected with MIA) animals was added as a comparator to the drug-dosed groups. The vehicle control response for each group of MIA-treated animals was defined as the 0% response (0% effect), whereas the naïve control group was defined as the normal response and as 100% effect. The % effect for each dose group was expressed as % return of response to normalcy, compared to the naïve group. A percent maximal possible effect (% MPE) of testing compound was calculated according to the formula: (Treatment CFmax Vehicle CFmax)/Vehicle CFmax]×100). Higher % effect numbers indicate increased relief from the pain in the model, with 100% indicating a return to the level of response seen in normal (non-osteoarthritic) animals. All experiments evaluating drug effects in this model were conducted in a randomized blinded fashion.
The animals were housed in Association for Assessment and Accreditation of Laboratory Animal Care (AAALAC) approved facilities at AbbVie Inc. in a temperature-regulated environment under a controlled 12-hour light-dark cycle, with lights on at 6:00 a.m. Food and water were available ad libitum at all times except during testing. All testing was done following procedures outlined in protocols approved by AbbVie Inc.'s Institutional Animal Care and Use Committee.

[3] = target: T1, recombinant human Nav1.7 (Homo sapiens, UniProt Q15858); assay: FRET-based membrane potential assay, Nav1.7; assay type: cell-based; conditions: HEK293 cells expressing recombinant human Nav1.7; veratridine + scorpion venom depolarization
T1 construct: expressed in transfected cells; host or cells: HEK293
T1 sequence (Q15858 whole entry): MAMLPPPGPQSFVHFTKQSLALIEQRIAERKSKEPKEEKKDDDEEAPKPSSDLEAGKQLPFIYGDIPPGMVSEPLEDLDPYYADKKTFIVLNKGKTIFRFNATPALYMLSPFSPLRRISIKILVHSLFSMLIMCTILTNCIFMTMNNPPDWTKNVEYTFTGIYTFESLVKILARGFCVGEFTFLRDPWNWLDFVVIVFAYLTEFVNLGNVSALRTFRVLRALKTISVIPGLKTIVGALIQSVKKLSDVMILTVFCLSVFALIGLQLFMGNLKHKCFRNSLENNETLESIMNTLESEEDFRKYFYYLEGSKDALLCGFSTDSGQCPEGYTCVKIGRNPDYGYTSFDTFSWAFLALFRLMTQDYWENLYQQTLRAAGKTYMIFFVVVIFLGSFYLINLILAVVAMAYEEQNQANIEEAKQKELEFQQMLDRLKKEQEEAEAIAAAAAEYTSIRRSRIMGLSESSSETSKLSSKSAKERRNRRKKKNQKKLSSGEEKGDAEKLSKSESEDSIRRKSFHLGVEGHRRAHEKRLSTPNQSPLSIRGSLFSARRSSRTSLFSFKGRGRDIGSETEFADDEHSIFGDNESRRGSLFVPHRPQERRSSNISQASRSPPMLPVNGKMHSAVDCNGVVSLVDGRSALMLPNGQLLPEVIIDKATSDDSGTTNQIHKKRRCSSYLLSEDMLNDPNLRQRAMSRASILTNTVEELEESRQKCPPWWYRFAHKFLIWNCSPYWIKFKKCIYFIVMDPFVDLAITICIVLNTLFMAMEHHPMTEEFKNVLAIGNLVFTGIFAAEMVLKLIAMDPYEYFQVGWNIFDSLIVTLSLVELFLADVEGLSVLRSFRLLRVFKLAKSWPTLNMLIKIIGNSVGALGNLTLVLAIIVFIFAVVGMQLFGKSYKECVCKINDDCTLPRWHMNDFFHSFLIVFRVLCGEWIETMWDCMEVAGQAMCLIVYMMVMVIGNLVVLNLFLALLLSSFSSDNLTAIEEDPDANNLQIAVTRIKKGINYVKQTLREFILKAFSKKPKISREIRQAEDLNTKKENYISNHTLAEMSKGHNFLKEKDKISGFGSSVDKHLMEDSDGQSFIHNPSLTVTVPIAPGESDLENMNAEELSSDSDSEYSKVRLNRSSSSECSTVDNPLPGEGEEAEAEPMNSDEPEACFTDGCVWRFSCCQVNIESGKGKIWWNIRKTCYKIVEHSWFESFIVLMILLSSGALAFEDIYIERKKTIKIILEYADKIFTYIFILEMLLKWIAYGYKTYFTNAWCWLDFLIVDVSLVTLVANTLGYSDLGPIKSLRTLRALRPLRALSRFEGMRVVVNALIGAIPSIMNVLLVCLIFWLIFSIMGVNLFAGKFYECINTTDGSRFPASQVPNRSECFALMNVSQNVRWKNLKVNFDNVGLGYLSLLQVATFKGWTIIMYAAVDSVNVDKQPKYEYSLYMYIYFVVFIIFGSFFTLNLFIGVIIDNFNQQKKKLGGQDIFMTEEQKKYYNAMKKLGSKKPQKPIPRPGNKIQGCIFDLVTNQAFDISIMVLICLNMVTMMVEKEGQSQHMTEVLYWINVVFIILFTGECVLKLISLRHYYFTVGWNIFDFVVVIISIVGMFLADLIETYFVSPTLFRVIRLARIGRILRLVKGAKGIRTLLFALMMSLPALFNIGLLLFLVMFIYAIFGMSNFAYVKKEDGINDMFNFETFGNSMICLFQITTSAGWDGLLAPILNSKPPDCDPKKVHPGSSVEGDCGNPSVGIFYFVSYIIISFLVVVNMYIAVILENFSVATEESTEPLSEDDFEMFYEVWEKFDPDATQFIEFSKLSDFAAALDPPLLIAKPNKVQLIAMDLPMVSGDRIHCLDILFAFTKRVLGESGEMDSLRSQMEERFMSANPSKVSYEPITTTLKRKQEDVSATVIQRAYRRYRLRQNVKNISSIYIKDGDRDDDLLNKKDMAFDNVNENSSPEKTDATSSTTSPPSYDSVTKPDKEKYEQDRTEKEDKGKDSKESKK

[4] = target: T2, hERG channel (Kv11.1) (Homo sapiens, UniProt Q12809); assay: hERG QPatch screening protocol (hERG current block); assay type: cell-based; conditions: HEK-293 cells stably transfected with hERG; tail current; room temperature
T2 construct: W. January (Wisconsin Alumni Research Foundation); host or cells: HEK-293
T2 sequence (Q12809 whole entry): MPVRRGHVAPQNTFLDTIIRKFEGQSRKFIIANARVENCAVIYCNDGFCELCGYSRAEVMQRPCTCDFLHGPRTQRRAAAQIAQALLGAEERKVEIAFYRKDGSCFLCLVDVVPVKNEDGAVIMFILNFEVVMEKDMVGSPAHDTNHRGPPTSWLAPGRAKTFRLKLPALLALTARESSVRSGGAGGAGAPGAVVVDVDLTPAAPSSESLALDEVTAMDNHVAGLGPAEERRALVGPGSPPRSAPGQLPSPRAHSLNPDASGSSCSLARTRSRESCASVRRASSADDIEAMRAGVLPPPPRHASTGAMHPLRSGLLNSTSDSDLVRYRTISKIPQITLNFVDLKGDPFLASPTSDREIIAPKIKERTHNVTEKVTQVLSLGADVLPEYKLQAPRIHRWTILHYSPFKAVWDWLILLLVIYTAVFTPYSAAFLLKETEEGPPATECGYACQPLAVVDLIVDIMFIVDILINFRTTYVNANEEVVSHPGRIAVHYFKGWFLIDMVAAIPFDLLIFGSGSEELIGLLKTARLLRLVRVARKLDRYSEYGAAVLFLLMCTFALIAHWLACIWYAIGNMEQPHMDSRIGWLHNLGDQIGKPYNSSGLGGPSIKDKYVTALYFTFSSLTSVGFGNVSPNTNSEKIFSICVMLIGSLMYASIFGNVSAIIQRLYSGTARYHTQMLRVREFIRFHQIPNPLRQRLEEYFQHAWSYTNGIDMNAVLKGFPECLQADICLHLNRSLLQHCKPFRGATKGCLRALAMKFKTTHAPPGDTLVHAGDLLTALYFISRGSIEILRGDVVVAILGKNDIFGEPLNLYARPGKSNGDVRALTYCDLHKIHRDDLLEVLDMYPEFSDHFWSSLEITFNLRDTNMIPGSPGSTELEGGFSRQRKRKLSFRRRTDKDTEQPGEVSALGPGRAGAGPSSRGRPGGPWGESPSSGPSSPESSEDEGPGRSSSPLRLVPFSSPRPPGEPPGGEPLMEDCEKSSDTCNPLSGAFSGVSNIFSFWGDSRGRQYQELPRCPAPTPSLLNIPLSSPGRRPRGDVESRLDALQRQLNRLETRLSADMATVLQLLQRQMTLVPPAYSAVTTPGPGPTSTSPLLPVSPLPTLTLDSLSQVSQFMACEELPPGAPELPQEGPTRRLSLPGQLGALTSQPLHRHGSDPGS
Experimental: hERG QPatch Screening Protocol
Solutions and Compound Plates:
The bath solution contained (in mM): 140 NaCl, 5 KCl, 1 MgCl2, 2 CaCl2, 5 glucose, 20 HEPES, pH=7.4. The internal solution contained (in mM): 125 K-aspartate, 20 KCl, 10 EGTA, 5 MgATP, 1 MgCl2, 5 HEPES, pH=7.3.
Compound plates were prepared with an acoustic liquid handler (Echo® 550, Labcyte), using 384-well source plates and 96-well destination plates. Compounds were delivered to the destination plates as 300 nL spots in half-log increments (1, 3, 10 and 30 mM), dissolved in dimethyl sulfoxide. Plates were solvated with bath solution (300 μL) to final concentrations (1, 3, 10 and 30 μM; 0.1% dimethyl sulfoxide) and added to the QPatch workstation.
Cells and Cell Preparation:
Human embryonic kidney (HEK-293) cells, stably transfected with the hERG channel, were obtained from Dr. C. W. January (Wisconsin Alumni Research Foundation). Cells were initially maintained at 37° C. (5% CO2 atmosphere) in MEM supplemented media. Cells were cryo-preserved in 10% dimethyl sulfoxide, 90% fetal bovine serum at 10 M cells/mL. For electrophysiological studies, cells were thawed, resuspended in media at 1.0-1.5 M cells/mL and placed on the QPatch workstation.
QPatch Electrophysiology Workstation and Experimental Protocol:
Currents were recorded using QPatch HT (Sophion), an automated planar patch-clamp system. The QPatch uses forty-eight amplifiers and a 48-chamber QPlate positioned directly on top of the headstage. To obtain high resistant seals, cells are added to each chamber and allowed to settle for 10 seconds. Negative pressure is then applied to promote cell delivery to the patch chip openings on the chamber bottom. After formation of GΩ seals, negative pressure ramps are applied to obtain intracellular access. Access resistance was initially optimized by additional pressure ramps to assure the intracellular access was adequate for voltage clamp experiments (targeted access resistance <10 MΩ). Whole-cell compensation and series resistance compensation were used at 60% (both predicted and corrected). Experiments using QPatch were conducted at room temperature.
A single application of each concentration was applied to cells. During a five-minute wash-in period, a four-second depolarizing pulse to +20 mV, followed by a five-second repolarizing pulse to −50 mV was applied once every 15 seconds from a holding potential of −80 mV. Cells were exposed to four ascending concentrations of drug in half-log intervals.
Evaluation of hERG Current Block:
hERG tail current was measured as the difference in amplitude between a […] and the end of a five-second test pulse to −50 mV, preceded by a four-second pulse to +20 mV. The hERG IC50 values for compounds were determined from tail current analysis. The IC50 was calculated with a logistic fitting routine using the following equation: y=[(A1−A2)/(1+(x/IC50))^p]A2, where A1=initial×value, A2=final×value and p=power.

[5] = target: T3, recombinant human Nav1.8 (Homo sapiens, UniProt Q9Y5Y9); assay: FRET-based membrane potential assay, Nav1.8; assay type: cell-based; conditions: HEK293 cells expressing recombinant human Nav1.8; veratridine + scorpion venom depolarization
T3 construct: host or cells: HEK293
T3 sequence (Q9Y5Y9 whole entry): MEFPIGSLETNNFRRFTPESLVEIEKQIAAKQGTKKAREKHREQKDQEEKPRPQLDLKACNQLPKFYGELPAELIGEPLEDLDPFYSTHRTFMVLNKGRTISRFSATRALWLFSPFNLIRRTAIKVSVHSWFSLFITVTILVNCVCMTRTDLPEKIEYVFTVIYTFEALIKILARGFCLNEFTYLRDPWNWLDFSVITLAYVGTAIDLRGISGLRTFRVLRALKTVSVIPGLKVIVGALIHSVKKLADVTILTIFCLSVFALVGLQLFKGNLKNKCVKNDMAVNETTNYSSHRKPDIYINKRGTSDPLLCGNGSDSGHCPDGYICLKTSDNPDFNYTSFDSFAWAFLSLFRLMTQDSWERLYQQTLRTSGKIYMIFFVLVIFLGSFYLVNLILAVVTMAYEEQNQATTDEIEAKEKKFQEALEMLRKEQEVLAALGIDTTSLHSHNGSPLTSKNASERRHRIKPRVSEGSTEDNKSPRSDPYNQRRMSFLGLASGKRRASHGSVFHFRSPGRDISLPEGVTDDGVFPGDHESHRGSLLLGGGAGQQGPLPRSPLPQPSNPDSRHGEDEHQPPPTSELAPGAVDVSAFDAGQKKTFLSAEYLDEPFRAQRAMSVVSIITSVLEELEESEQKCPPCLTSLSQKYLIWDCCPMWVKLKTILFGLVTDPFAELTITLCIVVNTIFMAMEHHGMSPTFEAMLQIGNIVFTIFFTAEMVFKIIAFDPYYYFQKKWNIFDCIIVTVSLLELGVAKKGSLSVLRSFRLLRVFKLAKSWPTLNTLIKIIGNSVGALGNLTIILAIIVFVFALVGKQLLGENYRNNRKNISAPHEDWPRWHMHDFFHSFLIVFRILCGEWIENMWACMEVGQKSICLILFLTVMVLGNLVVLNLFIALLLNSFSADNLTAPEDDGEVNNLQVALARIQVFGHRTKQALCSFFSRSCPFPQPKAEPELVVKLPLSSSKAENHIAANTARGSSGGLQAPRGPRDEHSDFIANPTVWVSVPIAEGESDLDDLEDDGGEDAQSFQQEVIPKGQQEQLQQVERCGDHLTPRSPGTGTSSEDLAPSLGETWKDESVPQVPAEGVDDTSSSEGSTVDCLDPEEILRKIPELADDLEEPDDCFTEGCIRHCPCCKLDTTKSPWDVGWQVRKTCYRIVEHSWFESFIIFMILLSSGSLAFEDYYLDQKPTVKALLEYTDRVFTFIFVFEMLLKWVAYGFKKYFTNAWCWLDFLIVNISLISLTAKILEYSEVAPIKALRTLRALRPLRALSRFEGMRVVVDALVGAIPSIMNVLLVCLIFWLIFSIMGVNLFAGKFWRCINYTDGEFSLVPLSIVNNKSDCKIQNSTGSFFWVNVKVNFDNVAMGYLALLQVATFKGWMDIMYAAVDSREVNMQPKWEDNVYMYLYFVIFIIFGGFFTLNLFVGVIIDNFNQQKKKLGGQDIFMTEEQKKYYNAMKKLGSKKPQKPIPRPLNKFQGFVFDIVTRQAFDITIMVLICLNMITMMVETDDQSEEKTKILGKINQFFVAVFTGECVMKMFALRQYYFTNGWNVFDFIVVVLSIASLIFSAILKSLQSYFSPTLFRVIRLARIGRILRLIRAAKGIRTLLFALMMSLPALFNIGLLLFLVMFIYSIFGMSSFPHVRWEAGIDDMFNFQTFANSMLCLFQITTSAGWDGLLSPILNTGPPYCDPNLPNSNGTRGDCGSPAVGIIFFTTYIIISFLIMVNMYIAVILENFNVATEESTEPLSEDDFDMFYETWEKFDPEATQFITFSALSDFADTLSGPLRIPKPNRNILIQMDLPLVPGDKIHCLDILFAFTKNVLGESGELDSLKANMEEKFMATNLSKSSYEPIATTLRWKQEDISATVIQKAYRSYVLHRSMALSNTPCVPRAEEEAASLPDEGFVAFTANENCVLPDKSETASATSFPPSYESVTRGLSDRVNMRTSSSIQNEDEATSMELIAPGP

| Compound | SNL MPE [1] [%] | OA MPE ([2]; OA dose 10 mg/kg) [%] | IC50 [3] [µM] | IC50 [4] [µM] | OA MPE ([2]; OA dose 30 mg/kg) [%] | IC50 [5] [µM] |
| --- | --- | --- | --- | --- | --- | --- |
| O=C(CC1CCCO1)N1C[C@@H]2CN(c3cccc4c3cnn4-c3ccccc3F)C(=O)[C@H]2C1 (relative stereo) [Example 10, rel-(3aR,6aR)-2-[1-(2-fluorophenyl)-1H-indazol-4-yl]-5-(tetrahydrofuran-2-ylacetyl)hexahydropyrrolo[3,4-c]pyrrol-1(2H)-one] | 59 | 74 | 2.07 | > 30 |  |  |
| C[C@H](O)CC(=O)N1C[C@H]2CN(c3cccc4c3cnn4-c3ccccc3F)C(=O)[C@H]2C1 [Example 34, (3aS,6aR)-2-[1-(2-fluorophenyl)-1H-indazol-4-yl]-5-[(3S)-3-hydroxybutanoyl]hexahydropyrrolo[3,4-c]pyrrol-1(2H)-one] | 60 |  | 9.91 | > 30 | 85 | 8.36 |
| CC(C)(O)CC(=O)N1C[C@H]2CN(c3cccc4c3cnn4-c3ccccc3F)C(=O)[C@H]2C1 [Example 35, (3aS,6aR)-2-[1-(2-fluorophenyl)-1H-indazol-4-yl]-5-(3-hydroxy-3-methylbutanoyl)hexahydropyrrolo[3,4-c]pyrrol-1(2H)-one] | 40 |  |  |  | 99 |  |
